The values that follow come from article PMC4130196, “Angiotensin I-Converting Enzyme Inhibitor Derived from Cross-Linked Oyster Protein” (BioMed Research International, 2014).

A short description of data set [1]: in vitro. In kind it is cell-based. The note with it: human. How it is done: The ACE inhibitory activities of the synthetic peptides were measured, and the cell toxicity was evaluated by cell viability testing on the hepatocyte cell line HepG2. HepG2 cells were cultured in MEM medium containing 10% fetal bovine serum. Ninety-six well plates containing 1 × 10^4 cells per well were incubated at 35°C for 24 h under 95% humidity and 5% CO2. After incubation, the synthetic peptides were added (final concentration, 200 μg/mL) and cells were incubated under the same conditions for an additional 24 h. Cell growth was assessed with the CellTiter 96 Aqueous One Solution Cell Proliferation Assay kit (Promega, Madison, WI, USA) and absorbance was determined with a microplate reader (Perkin Elmer 1420, VICTOR X Multilabel Plate readers, Waltham, MA, USA) at 490 nm. Cell viability was calculated as the percentage of absorbance of the synthetic peptide-treated groups compared with that of the untreated group (100% viability).

Data set [2] has as its target Angiotensin I-converting enzyme (UniProt P12822).
Chain of UniProt P12822 (P12822 34-1260): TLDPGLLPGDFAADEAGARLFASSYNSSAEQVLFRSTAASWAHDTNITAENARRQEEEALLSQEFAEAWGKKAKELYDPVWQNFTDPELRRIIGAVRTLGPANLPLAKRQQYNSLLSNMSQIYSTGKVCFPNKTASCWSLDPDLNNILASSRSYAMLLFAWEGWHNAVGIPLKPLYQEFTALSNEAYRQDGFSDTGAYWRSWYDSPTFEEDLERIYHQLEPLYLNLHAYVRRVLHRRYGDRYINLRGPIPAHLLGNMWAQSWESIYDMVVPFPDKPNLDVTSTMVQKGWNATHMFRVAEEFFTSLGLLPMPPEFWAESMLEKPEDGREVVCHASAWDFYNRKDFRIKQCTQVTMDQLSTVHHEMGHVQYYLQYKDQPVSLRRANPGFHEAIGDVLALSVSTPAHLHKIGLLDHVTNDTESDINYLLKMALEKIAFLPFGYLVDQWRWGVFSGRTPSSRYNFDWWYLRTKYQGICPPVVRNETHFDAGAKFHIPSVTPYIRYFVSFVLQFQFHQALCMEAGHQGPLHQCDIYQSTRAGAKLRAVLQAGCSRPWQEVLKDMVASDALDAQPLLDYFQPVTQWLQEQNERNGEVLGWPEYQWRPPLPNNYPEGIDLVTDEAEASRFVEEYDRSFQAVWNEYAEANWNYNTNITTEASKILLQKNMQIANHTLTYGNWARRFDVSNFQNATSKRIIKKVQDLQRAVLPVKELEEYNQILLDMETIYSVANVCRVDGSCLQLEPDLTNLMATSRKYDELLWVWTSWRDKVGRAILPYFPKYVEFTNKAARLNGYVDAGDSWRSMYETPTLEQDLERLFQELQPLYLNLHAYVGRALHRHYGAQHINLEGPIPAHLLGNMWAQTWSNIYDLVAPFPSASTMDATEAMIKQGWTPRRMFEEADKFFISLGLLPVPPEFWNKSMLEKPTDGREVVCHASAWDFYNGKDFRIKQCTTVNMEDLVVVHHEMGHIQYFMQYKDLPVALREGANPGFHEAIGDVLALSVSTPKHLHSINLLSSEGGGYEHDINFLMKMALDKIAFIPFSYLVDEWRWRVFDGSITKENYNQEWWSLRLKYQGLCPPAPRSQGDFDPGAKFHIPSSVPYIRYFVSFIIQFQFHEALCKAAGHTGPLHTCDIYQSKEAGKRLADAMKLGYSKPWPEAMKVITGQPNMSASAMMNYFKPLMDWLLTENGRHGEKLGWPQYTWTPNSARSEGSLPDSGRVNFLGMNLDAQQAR
Data set [3] deals with spontaneously hypertensive rats (SHR). Kind of data set: Antihypertensive activity in vivo: SBP of SHR by tail-cuff method after intragastric administration. On the set-up: species or system rat. How it is done: Spontaneously hypertensive rats (SHR) with systolic blood pressure (SBP) between 170 and 190 mmHg and original strain Wistar Kyoto rats (WKR) with SBP between 100 and 125 mmHg were purchased from Harlan, USA (Indianapolis, USA). All rats were treated in accordance with Kyung Hee University guidelines for the care and use of laboratory animals. The animals were individually housed in stainless steel cages and adapted to 23 ± 1°C and humidity of 55 ± 5% under a 12 h light-dark cycle. The 12-week-old rats were fed a pelletized commercial chow diet for a period of 1 week after arrival and then randomly divided into five groups: untreated SHR control group (n = 3); normal WKR control group (n = 3); oyster hydrolysate-treated SHR group (100 mg/kg body weight, n = 3); sardine hydrolysate-treated SHR group (positive control, 100 mg/kg body weight, n = 3); and Captopril-treated SHR group (positive control, ACE inhibitor; 8 mg/kg body weight, n = 3). After intragastric administration of the samples using Sonde, SBP of the rats was measured by a Coda noninvasive blood pressure system (Kent Scientific Corporation, Baltimore, USA) using the tail-cuff method after prewarming for 30 min in an environmental chamber of 32°C at 0, 3, 6, 9, 12, and 24 h. Subsequent measurement of blood pressure was expressed as a percentage of that at the initial time.

Usually viability stands for a read-out of living cells in per cent, often relative to untreated cells. As to `CC(C)[C@H](N)C(=O)N[C@@H](CCCCN)C(=O)O` [VK], in data set [1], the viability at 24 h, 200 μg/mL turned out to be 118 ± 15.1%.
With KY (peptide), in data set [2], the IC50 of ACE inhibition (enzyme activity: hippuric acid released from HHL, by HPLC) came out at 51.5 µM.
VK (peptide): the IC50 of ACE inhibition (enzyme activity: hippuric acid released from HHL, by HPLC) in data set [2] was found to be 29 µM.
The same measure, in the same setting: the value for TAY (peptide) was 16.7 µM; that for YA (peptide) was 93.9 µM.
Regarding `NCCCC[C@H](N)C(=O)N[C@@H](Cc1ccc(O)cc1)C(=O)O` [KY], the viability at 24 h, 200 μg/mL in data set [1] amounted to 118 ± 7%.
As for `C[C@H](CS)C(=O)N1CCC[C@H]1C(=O)O` [Captopril], in data set [3] (8 mg/kg intragastric, 12 h after administration), the “SBP at maximum decrease, as % of the initial SBP” value turned out to be 85.3 ± 4.5%. Besides, the “effect on SBP of SHR (in words)” value in data set [3] (oral administration, oyster and sardine hydrolysate 100 mg/kg, Captopril 8 mg/kg) is listed as “not significant”.
As to FYN (peptide), the IC50 of ACE inhibition (enzyme activity: hippuric acid released from HHL, by HPLC) in data set [2] is 68.2 µM.
`C[C@H](NC(=O)[C@@H](N)[C@@H](C)O)C(=O)N[C@@H](Cc1ccc(O)cc1)C(=O)O` [TAY]: the viability at 24 h, 200 μg/mL in data set [1] is 105 ± 1.9%.
In the case of `NC(=O)C[C@H](NC(=O)[C@H](Cc1ccc(O)cc1)NC(=O)[C@@H](N)Cc1ccccc1)C(=O)O` [FYN], the viability at 24 h, 200 μg/mL in data set [1] was 110 ± 3%.
